Measurements published in patent publication US9045524B2, “Selective caspase inhibitors and uses thereof” (NOVAGENESIS FOUNDATION, priority 2009, dated 2015).
Like-named read-outs stand apart in the source and are kept apart here.

Experiments:
EAE in C57BL/6 mice = assay: Chronic EAE mouse model (MOG35-55 immunization), daily clinical score and body weight; assay type: in vivo; design: key to Delay in onset of the disease / Reduction in severity of the disease / Reduction in body weight loss: +++: high level improvement; ++: moderate improvement; +: small improvement; −: no improvement; settings: for Delay in onset of the disease / Reduction in body weight loss / Reduction in severity of the disease: average overall effects on the EAE model, i.p.
Description: The aim of this study was to verify the effectiveness of compounds in a chronic mouse animal model of EAE. EAE is a good proof-of-principle model of neurodegeneration since it encompasses degeneration or destruction of practically all the cells in the central nervous system, includes most major immunomodulatory components, and is able to maintain normal innate regenerative functions in the animal. This is a standard model (Antel J P et al., J Neurosci Res. 1997, 50: 345-353) used mainly to mimic the course evolution of Multiple Sclerosis (MS) in humans, and is commonly used for studying disease mechanisms and testing potential therapies. EAE is induced by immunization with myelin proteins, leading to development of myelin-specific T cells. These autoreactive T cells traffic into CNS parenchyma where they initiate an inflammatory cascade through recruitment of other cells such as monocytes and neutrophils. Accumulation of immune cells within CNS leads to myelin damage, axonal loss and clinical deficit in affected animals. EAE can be induced in a variety of species and strains of animals [mice, Rat, marmoset monkey, rhesus macaques] using various CNS antigens [Myelin Oligodendrocyte Glycoprotein (MOG), proteolipid protein (PLP) and myelin basic protein (MBP)]. Seven to 8 week old female C57BL/6 mice were purchased from Charles River Laboratories, and housed at MISPRO™ animal facility for one week before experimentation for adaptation to the new environment. All proper animal experimentation and ethics approvals were obtained prior to the start of any experiments. Mice were immunized subcutaneously with 100 μg of MOG35-55 (Sheldon Biotechnology Centre, McGill University) in CFA containing 5 mg/ml of desiccated (killed and dried) Mycobacterium tuberculosis H37Ra (Difco, Inc), at two sites on the back. The mice were then injected with 200 ng of pertussis toxin (List Biological Laboratories, Inc) in PBS intraperitoneally on days 0 and 2 using 25 gauge needles and scored daily using an EAE clinical scale as detailed below (Touil T et al., J Neurol Sci. 2008, 271:191-202; Antel J P et al., 1997, supra; Owens T et al., Curr Pharm Des. 2005, 1:1031-1037).
EAE was clinically assessed throughout the experiments by daily scoring using a scale from 0 to 5 as follows: partial limp tail, 0.5; full limp tail, 1; limp tail and waddling gait, 1.5; paralysis of one hind limb, 2; paralysis of one hind limb and partial paralysis of other hind limb, 2.5; paralysis of both hind limbs, 3; ascending paralysis, 3.5; paralysis of trunk, 4; moribund, 4.5; death, 5. In all the EAE models a body weight loss is always associated with the clinical signs. This body weight loss is associated with the loss of the function and the paralysis of the muscle (atrophy inducing loss of weight). For animals showing a clinical sign of 2 or more, the food and the water were presented inside the cage to facilitate eating and drinking.
At the onset of clinical signs of EAE, the mice were treated with 200 μl of Compound 51, 53, 57, 59, 101, 104, 105, 111 or 123 dissolved in 2.5% Dimethyl sulfoxide (DMSO) in PBS, while placebo groups were treated with 2.5% Dimethyl sulfoxide (DMSO) in PBS only, by intraperitoneal injection at different time of the clinical evolution.

Caspase-2 = Caspase-2 (Homo sapiens (Human), UniProt P42575); assay: Fluorometric enzymatic assay, active recombinant Caspase-2; assay type: biochemical
Sequence of Caspase-2 (P42575 170-325): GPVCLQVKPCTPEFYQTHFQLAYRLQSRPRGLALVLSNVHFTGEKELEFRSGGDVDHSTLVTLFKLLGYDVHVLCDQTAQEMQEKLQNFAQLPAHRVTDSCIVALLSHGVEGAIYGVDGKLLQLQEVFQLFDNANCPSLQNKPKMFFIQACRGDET
Sequence of Caspase-2 (P42575 348-452): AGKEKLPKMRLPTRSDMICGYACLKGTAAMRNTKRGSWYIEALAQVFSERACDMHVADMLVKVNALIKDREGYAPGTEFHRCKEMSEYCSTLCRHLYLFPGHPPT
Procedure: (§1) . In brief, each compound was serially diluted for a final test concentration range of 0.1 nM to 3.3 μM (10-point titration). Each active recombinant Caspase (Active Recombinant Caspase Set IV™ (BioVision, Cat# K233-10-25)) was added to the respective wells of the 96-well High Efficiency™ plates (Molecular Devices, Cat#75-000-0005), followed by the addition of the diluted test compounds. DMSO (Final=1%) or Z-VAD-FMK (Caspase-Family Inhibitor, Z-VAD-FMK (BioVision, Cat#1010-100), Final concentration=20 uM) was added in the designated wells as a background control or positive inhibitor control respectively. Each dilution of the test compounds was tested in duplicates, whereas the DMSO or Z-VAD-FMK controls were tested in triplicates. The synthetic peptide substrate specific for each Caspase (BioVision) was then added to the respective wells, which when cleaved by the active caspase releases free AFC that can be quantified by fluorometry. After a 30-minute incubation at 37° C., the plates were read using the Flexstation 3™ with a 400 nm excitation filter and a 505 nm emission filter (cutoff at 495 nm). The inhibition efficiency and the IC50 values of the test compounds were then determined by comparing the fluorescence intensity (FI) of the test compounds with that of the DMSO control.
(§2) The SoftMax Pro Software™ (v5.2 rev C, Molecular Devices) was used for data analysis. The % Inhibition is calculated by: % Inhibition=[FI(DMSO)−FI(test sample)/FI(DMSO)]×100. The % Inhibition vs. Log(concentration) was plotted, and the curve was fitted using the 5-parameter fit of the software.

Caspase-5 [1] = molecular target: T1, Caspase-5 (Homo sapiens (Human), UniProt P51878); assay: Fluorometric enzymatic assay, active recombinant Caspase-5; assay type: biochemical
Procedure: as §1, §2
Target sequence in this assay (P51878 whole entry, looked up): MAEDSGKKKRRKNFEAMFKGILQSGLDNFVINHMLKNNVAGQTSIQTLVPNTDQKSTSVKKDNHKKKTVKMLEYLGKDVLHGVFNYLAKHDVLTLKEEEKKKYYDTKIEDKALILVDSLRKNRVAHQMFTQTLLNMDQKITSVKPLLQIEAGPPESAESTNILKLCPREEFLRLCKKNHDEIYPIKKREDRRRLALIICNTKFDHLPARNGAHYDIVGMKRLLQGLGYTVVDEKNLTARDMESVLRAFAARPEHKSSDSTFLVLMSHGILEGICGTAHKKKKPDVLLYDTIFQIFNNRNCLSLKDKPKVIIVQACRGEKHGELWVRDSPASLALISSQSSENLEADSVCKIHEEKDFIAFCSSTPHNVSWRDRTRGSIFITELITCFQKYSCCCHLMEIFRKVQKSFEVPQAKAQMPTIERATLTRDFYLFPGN
Target sequence in this assay (P51878 whole entry, looked up): as above

Caspase-6 = Caspase-6 (Homo sapiens (Human), UniProt P55212); assay: Fluorometric enzymatic assay, active recombinant Caspase-6; assay type: biochemical
Sequence of Caspase-6 (P55212 24-179): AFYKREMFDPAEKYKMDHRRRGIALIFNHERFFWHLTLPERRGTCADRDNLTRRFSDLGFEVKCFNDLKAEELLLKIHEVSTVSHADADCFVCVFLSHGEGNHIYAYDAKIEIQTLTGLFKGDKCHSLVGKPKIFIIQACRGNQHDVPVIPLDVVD
Sequence of Caspase-6 (P55212 194-293): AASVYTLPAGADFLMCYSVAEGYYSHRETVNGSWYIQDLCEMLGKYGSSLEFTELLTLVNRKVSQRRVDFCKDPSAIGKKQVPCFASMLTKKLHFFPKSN
Procedure: as §1, §2

Caspase-8 = Caspase-8 (Homo sapiens (Human), UniProt Q14790); assay: Fluorometric enzymatic assay, active recombinant Caspase-8; assay type: biochemical
Sequence of Caspase-8 (Q14790 217-374): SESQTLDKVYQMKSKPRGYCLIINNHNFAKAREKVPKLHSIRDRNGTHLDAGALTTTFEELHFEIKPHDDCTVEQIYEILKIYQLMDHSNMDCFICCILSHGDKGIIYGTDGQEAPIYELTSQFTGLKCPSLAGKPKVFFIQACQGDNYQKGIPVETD
Sequence of Caspase-8 (Q14790 385-479): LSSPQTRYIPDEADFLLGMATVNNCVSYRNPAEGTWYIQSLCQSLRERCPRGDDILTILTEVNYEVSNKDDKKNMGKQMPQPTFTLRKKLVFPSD
Procedure: as §1, §2

Caspase-1 [2] = molecular target: T2, Caspase-1 (Homo sapiens (Human), UniProt P29466); assay: Fluorometric enzymatic assay, active recombinant Caspase-1
Target sequence in this assay (P29466 whole entry, looked up): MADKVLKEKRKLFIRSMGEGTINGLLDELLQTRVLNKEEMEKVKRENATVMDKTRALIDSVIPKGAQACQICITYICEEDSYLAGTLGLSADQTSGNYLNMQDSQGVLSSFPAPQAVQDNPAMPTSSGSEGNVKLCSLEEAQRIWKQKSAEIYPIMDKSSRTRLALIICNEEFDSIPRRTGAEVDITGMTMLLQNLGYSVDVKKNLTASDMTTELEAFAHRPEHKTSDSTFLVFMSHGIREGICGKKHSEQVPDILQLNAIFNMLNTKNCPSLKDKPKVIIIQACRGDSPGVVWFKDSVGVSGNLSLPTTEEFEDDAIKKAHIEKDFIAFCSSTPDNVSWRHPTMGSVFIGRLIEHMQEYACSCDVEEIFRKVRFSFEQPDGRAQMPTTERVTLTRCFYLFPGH
Target sequence in this assay (P29466 whole entry, looked up): as above
Procedure: (§3) Each dilution of the test compounds was tested in duplicates, whereas the DMSO or Z-VAD-FMK controls were tested in triplicates. […] The inhibition efficiency and the IC50 values of the test compounds were then determined by comparing the fluorescence intensity (FI) of the test compounds with that of the DMSO control.

Caspase-3 [3] = molecular target: T3, Caspase-3 (Homo sapiens (Human), UniProt P42574); assay: Fluorometric enzymatic assay, active recombinant Caspase-3
Target sequence in this assay (P42574 29-175): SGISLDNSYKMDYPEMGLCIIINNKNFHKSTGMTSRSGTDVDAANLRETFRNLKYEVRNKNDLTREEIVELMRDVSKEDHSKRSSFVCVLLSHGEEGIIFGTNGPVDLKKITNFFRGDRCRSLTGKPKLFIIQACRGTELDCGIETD
Target sequence in this assay (P42574 176-277): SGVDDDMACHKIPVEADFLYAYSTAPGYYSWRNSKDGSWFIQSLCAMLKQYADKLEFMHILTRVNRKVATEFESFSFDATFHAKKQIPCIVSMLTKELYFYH
Procedure: as §3

Caspase-4 = Caspase-4 (Homo sapiens (Human), UniProt P49662); assay: Fluorometric enzymatic assay, active recombinant Caspase-4
Sequence of Caspase-4 (P49662 81-270): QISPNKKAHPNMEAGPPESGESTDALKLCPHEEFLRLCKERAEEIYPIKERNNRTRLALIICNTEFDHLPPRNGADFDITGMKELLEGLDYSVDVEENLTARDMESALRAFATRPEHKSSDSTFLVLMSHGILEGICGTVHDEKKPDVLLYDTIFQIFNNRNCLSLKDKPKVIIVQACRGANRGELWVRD
Sequence of Caspase-4 (P49662 290-377): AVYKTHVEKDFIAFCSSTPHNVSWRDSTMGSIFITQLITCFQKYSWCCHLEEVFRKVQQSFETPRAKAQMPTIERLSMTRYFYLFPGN
Procedure: as §3

Caspase-7 [4] = molecular target: T4, Caspase-7 (Homo sapiens (Human), UniProt P55210); assay: Fluorometric enzymatic assay, active recombinant Caspase-7
Procedure: as §3

Caspase-9 [5] = molecular target: T5, Caspase-9 (Homo sapiens (Human), UniProt P55211); assay: Fluorometric enzymatic assay, active recombinant Caspase-9
Target sequence in this assay (P55211 whole entry, looked up, change not shown): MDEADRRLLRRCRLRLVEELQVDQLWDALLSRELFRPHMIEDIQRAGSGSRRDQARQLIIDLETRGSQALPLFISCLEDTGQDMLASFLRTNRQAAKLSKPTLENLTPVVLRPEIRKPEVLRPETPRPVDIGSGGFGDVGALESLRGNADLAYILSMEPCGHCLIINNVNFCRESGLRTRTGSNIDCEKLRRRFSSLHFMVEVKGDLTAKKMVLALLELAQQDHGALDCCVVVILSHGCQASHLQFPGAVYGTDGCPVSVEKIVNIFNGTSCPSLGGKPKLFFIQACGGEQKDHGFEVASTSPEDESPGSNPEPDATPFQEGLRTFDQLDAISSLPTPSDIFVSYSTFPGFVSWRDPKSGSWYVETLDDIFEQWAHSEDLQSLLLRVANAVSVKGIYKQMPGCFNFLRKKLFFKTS
Target sequence in this assay (P55211 whole entry, looked up, change not shown): as above
Procedure: as §3

Caspase-10 = Caspase-10 (Homo sapiens (Human), UniProt Q92851); assay: Fluorometric enzymatic assay, active recombinant Caspase-10
Sequence of Caspase-10 (Q92851 220-415): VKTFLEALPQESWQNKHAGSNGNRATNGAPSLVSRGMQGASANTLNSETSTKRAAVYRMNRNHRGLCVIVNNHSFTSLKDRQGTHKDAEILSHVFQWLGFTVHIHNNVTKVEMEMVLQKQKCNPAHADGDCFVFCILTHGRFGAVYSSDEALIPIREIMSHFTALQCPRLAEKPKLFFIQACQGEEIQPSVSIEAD
Sequence of Caspase-10 (Q92851 416-521): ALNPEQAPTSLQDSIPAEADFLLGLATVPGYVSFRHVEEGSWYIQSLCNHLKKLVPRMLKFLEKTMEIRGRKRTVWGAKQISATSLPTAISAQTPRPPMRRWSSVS
Procedure: as §3

Caspase-1 [6] = molecular target: T2, Caspase-1; assay: Caspase-1 Inhibitor Drug Screening Kit, fluorometric (AFC liberation); assay type: biochemical; settings: 30-minute incubation at 37° C.; approximations of the average values; read-out: Caspase enzymatic activity, IC50 (uM) Caspase 1
Procedure: (§4) The level of inhibition of caspase-1, -3, -5, -7, -9 activity was determined by comparison of the relative fluorescence intensity in samples with or without the compound.

Caspase-3 [7] = molecular target: T3, Caspase-3; assay: Caspase-3 Inhibitor Drug Screening Kit, fluorometric (AFC liberation); assay type: biochemical
Target sequence in this assay (P42574 29-277): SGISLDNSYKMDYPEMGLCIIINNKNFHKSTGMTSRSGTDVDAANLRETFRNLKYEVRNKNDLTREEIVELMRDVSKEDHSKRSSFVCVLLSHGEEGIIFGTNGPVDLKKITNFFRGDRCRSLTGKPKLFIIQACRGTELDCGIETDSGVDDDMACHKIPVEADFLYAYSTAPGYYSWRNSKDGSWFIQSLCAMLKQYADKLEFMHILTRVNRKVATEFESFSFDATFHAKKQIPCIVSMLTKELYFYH
Procedure: as §4

Caspase-5 [8] = molecular target: T1, Caspase-5; assay: Caspase-5 Inhibitor Drug Screening Kit, fluorometric (AFC liberation); assay type: biochemical; settings: 30-minute incubation at 37° C.; approximations of the average values; read-out: Caspase enzymatic activity, IC50 (uM) Caspase 5
Procedure: as §4

Caspase-7 [9] = molecular target: T4, Caspase-7; assay: Caspase-7 Inhibitor Drug Screening Kit, fluorometric (AFC liberation); assay type: biochemical
Target sequence in this assay (P55210 whole entry): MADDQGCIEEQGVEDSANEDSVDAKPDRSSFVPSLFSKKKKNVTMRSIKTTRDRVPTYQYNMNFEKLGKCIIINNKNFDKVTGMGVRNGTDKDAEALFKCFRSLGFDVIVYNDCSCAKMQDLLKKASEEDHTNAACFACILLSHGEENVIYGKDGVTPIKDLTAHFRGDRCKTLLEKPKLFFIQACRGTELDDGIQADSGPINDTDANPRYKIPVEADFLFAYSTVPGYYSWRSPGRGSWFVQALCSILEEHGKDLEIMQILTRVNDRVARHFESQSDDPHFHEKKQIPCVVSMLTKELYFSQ
Procedure: as §4

Caspase-9 [10] = molecular target: T5, Caspase-9; assay: Caspase-9 Inhibitor Drug Screening Kit, fluorometric (AFC liberation); assay type: biochemical
Target sequence in this assay (P55211 whole entry): as the sequence (P55211 whole entry, looked up, change not shown) above
Procedure: as §4

[11] = system: proteolytic cleavage of PARP (poly ADP-ribose polymerase) in Hela cells; assay: Inhibition of staurosporine-induced PARP cleavage in live Hela cells; assay type: cell-based; settings: Hela cells, staurosporine
Procedure: To test the efficacy of caspase-3 inhibitors at the cellular level, the ability of selected compounds to inhibit the proteolytic cleavage of PARP (poly ADP-ribose polymerase) was evaluated in live Hela cells.
Briefly, in this assay Hela cells are seeded in 96 well plates and incubated for 4 hours with staurosporine, a well characterized inducer of apoptosis, alone or together with different concentrations of compound (50, 25, 10 and 3 uM). After formaldehyde-based fixation, the cells are stained with a fluorescein-labeled anti-cleaved PARP antibody (Cell signaling, Cat#: 9547) and counterstained with Hoechst33342 (Invitrogen, Cat#: H3570) to mark all nuclei. Fluorescence images are taken on a Cellomics™ microscope system (Thermo Scientific, Pittsburgh, USA) with the Hoechst stain in the blue channel and the cleaved PARP antibody stain in the green channel. The percentage of cleaved PARP positive cells is determined by calculating the ratio between nuclei with a cleaved PARP antibody staining above a certain threshold and all (Hoechst positive) nuclei. The efficacy of caspase-3 inhibition is determined by calculating the ratio between cleaved PARP positive cells after staurosporine incubation together with compounds and staurosporine incubation without compounds.

Glo3/7 = Glo3/7 assay; assay type: biochemical

CC(C)[C@H](NC(=O)[C@H](Cc1cccc2ccccc12)NC(=O)[C@H](CC(=O)O)NC(=O)OCc1ccccc1)C(=O)N[C@H](/C=C/S(C)(=O)=O)CC(=O)O [Compound 111, Z-Asp-3-(1-naphtyl)-L-alanine-Val-Aspmethyl vinyl sulfone]
effects on the clinical course of EAE (EAE in C57BL/6 mice; FIG. 3, i.p. from day 14 to 19 post immunization, versus placebo): ameliorating effects | Delay in onset of the disease (EAE in C57BL/6 mice): + | Reduction in body weight loss (EAE in C57BL/6 mice): ++ | Reduction in severity of the disease (EAE in C57BL/6 mice): ++ | IC50 (Caspase-2; 10-point titration 0.1 nM to 3.3 μM, 30-minute incubation at 37° C., read-out: IC50 values (μM) Caspase-2): > 3.33 µM | IC50 (Caspase-5 [1]; 10-point titration 0.1 nM to 3.3 μM, 30-minute incubation at 37° C., read-out: IC50 values (μM) Caspase-5): > 3.33 µM | IC50 (Caspase-6; 10-point titration 0.1 nM to 3.3 μM, 30-minute incubation at 37° C., read-out: IC50 values (μM) Caspase-6): > 3.33 µM | IC50 (Caspase-8; 10-point titration 0.1 nM to 3.3 μM, 30-minute incubation at 37° C., read-out: IC50 values (μM) Caspase-8): > 3.33 µM | IC50 (Caspase-1 [2]; read-out: IC50 values (μM) Caspase-1, 10-point titration 0.1 nM to 3.3 μM, 30-minute incubation at 37° C.): > 3.33 µM | inhibitory activity towards Caspase-3 (Caspase-3 [3]; FIG. 5): high inhibitory activity | IC50 (Caspase-3 [3]; read-out: IC50 values (μM) Caspase-3, 10-point titration 0.1 nM to 3.3 μM, 30-minute incubation at 37° C.): 0.08 µM | IC50 (Caspase-4; read-out: IC50 values (μM) Caspase-4, 10-point titration 0.1 nM to 3.3 μM, 30-minute incubation at 37° C.): > 3.33 µM | IC50 (Caspase-7 [4]; read-out: IC50 values (μM) Caspase-7, 10-point titration 0.1 nM to 3.3 μM, 30-minute incubation at 37° C.): > 3.33 µM | IC50 (Caspase-9 [5]; read-out: IC50 values (μM) Caspase-9, 10-point titration 0.1 nM to 3.3 μM, 30-minute incubation at 37° C.): > 3.33 µM | IC50 (Caspase-10; read-out: IC50 values (μM) Caspase-10, 10-point titration 0.1 nM to 3.3 μM, 30-minute incubation at 37° C.): > 3.33 µM

COC(=O)CC[C@H](NC(=O)[C@H](CC(=O)OC)NC(=O)OCc1ccccc1)C(=O)N[C@H](C(=O)N[C@@H](CC(=O)OC)C(=O)CF)C(C)C [Z-DEVD-FMK, z-D(OMe)E(OMe)VD(OMe)FMK, reference compound]
IC50 (Caspase-2): > 3.33 µM | inhibitory activity towards Caspase-2 (Caspase-2; FIG. 5): negligible | IC50 (Caspase-5 [1]): > 3.33 µM | inhibitory activity towards Caspase-5 (Caspase-5 [1]; FIG. 5): negligible | IC50 (Caspase-6): > 3.33 µM | inhibitory activity towards Caspase-6 (Caspase-6; FIG. 5): negligible | IC50 (Caspase-8): 1.6 µM | inhibitory activity towards Caspase-8 (Caspase-8; FIG. 5): inhibitory activity | IC50 (Caspase-1 [2]): 0.7 µM | inhibitory activity towards Caspase-1 (Caspase-1 [2]; FIG. 5): inhibitory activity | IC50 (Caspase-4): 2.5 µM | inhibitory activity towards Caspase-4 (Caspase-4; FIG. 5): inhibitory activity | IC50 (Caspase-7 [4]): > 3.33 µM | inhibitory activity towards Caspase-9 (Caspase-9 [5]; FIG. 5): inhibitory activity | IC50 (Caspase-10): 2.7 µM | inhibitory activity towards Caspase-10 (Caspase-10; FIG. 5): inhibitory activity

CC(C)[C@H](NC(=O)[C@H](CCC(=O)O)NC(=O)[C@H](CC(=O)O)NC(=O)OCc1ccccc1)C(=O)N[C@H](/C=C/S(C)(=O)=O)CC(=O)O [Compound 59, Z-Asp-Glu-Val-Aspmethyl vinyl sulfone]
IC50 (Caspase-1 [6]): 1.4 µM | IC50 (Caspase-3 [7]; 30-minute incubation at 37° C., approximations of the average values, read-out: Caspase enzymatic activity, IC50 (uM) Caspase 3): 0.02 µM | IC50 (Caspase-3 [7]; read-out: IC50 caspase-3): 0.02 µM | IC50 (Caspase-5 [8]): > 3.33 µM | IC50 (Caspase-7 [9]; 30-minute incubation at 37° C., approximations of the average values, read-out: Caspase enzymatic activity, IC50 (uM) Caspase 7): 0.04 µM | IC50 (Caspase-7 [9]; read-out: IC50 caspase-7): 0.042 µM | IC50 (Caspase-9 [10]; 30-minute incubation at 37° C., approximations of the average values, read-out: Caspase enzymatic activity, IC50 (uM) Caspase 9): 0.5 µM | IC50 (Caspase-9 [10]; read-out: IC50 caspase-9): 0.509 µM | effectivity in inhibiting PARP cleavage [11]: showing effectivity especially relative to DEVD-fmk | IC50 (Glo3/7): 0.09 µM | Delay in onset of the disease (EAE in C57BL/6 mice): ++ | Reduction in body weight loss (EAE in C57BL/6 mice): ++ | Reduction in severity of the disease (EAE in C57BL/6 mice): ++
